The text below walks through data of patent publication US20240226115A1, “AXL INHIBITOR COMPOUNDS” (ARCUS BIOSCIENCES, INC., priority 2021, published 2024).

What is called IC50 is the midpoint of a concentration-inhibition curve. Read a high IC50 as weaker potency.

Test [1] addresses T1, Axl (Homo sapiens, UniProt P30530).
T1 sequence (P30530 26-894): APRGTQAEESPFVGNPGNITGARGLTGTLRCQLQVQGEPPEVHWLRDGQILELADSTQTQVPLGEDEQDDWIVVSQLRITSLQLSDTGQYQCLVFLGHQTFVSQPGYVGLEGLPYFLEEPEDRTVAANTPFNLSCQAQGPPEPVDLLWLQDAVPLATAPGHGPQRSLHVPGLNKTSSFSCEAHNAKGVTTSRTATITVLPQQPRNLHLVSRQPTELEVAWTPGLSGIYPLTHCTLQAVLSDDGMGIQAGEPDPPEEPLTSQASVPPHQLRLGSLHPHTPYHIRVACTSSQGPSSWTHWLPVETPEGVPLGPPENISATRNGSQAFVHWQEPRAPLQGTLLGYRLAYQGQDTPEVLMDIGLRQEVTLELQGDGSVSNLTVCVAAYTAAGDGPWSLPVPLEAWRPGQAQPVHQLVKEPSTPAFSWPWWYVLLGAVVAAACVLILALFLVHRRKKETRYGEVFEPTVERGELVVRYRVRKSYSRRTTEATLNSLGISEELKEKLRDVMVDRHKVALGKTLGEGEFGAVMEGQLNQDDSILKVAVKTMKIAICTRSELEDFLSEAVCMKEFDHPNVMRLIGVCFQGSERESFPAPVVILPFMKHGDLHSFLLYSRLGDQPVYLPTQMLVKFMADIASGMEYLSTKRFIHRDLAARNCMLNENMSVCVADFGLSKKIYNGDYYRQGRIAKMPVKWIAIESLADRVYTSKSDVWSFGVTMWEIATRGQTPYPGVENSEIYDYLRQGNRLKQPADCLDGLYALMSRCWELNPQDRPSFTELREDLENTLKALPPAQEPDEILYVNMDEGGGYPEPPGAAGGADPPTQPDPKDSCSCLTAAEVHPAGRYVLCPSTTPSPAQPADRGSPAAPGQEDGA
Briefly: HTRF KinEASE-TK biochemical potency, AXL. Also noted: purchased Invitrogen. The conditions noted are these: 5 nM AXL, 700 μM ATP. Summed up:
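Enzyme preincubated with compound 1 h at RT; final 5 nM AXL or 1 nM TYRO3/MER, 800 nM TK substrate-biotin, 700 μM ATP, HEPES pH 7.4, MgCl2, 1% DMSO, 2 h at RT. HTRF 665/620 ratio read after streptavidin-XL665/cryptate antibody detection; percent activity relative to DMSO and pre-stopped controls.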
(In general: In TR-FRET formats the signal depends on donor and acceptor labels being close together.)

For test [2], the target named is T1, Axl. The test can be described thus: Axl NanoBRET intracellular kinase assay (Cell Binding). Also noted: host or cells: HEK-293. The conditions noted are these: HEK-293 cells transfected with Axl-NanoLuc fusion vector; displacement of K-5 NanoBRET tracer. Summed up: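 Intracellular binding measured as loss of BRET (610 nm/450 nm) when compounds displace 0.35 μM K-5 tracer from Axl-NanoLuc in transfected HEK-293 cells.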

A value given as a limit tells only on which side of the number the result lay.

Take `C[C@H]1CCCN1C1CCc2ccc(-c3cnc4[nH]nc(-c5ccc6c(c5)OCCNC6=O)c4c3)cc2CC1` (stereo partly drawn) [Example 43, 8-(5-{7-[(2S)-2-Methylpyrrolidin-1-yl]-6,7,8,9-tetrahydro-5H-benzo[7]annulen-2-yl}-1H-pyrazolo[3,4-b]pyridin-3-yl)-2,3,4,5-tetrahydro-1,4-benzoxazepin-5-one]: the IC50 on Axl [1] and at Axl [2] was < 100 nM throughout.

Consider `C[C@@H]1CCCN1C1CCc2ccc(-c3cnc4[nH]nc(-c5ccc6c(c5)OCCNC6=O)c4c3)cc2CC1` (stereo partly drawn) [Example 44, 8-(5-{7-[(2R)-2-Methylpyrrolidin-1-yl]-6,7,8,9-tetrahydro-5H-benzo[7]annulen-2-yl}-1H-pyrazolo[3,4-b]pyridin-3-yl)-2,3,4,5-tetrahydro-1,4-benzoxazepin-5-one], for which the half-maximal inhibitory concentration (IC50) against Axl [1] and on Axl [2] was < 100 nM throughout.

For `O=C1NCCOc2cc(-c3n[nH]c4ncc(-c5ccc6c(c5)CCC(N[C@H]5CCOC5)CC6)cc34)ccc21` (stereo partly drawn) [Example 45, 8-[5-(7-{[(3S)—Oxolan-3-yl]amino}-6,7,8,9-tetrahydro-5H-benzo[7]annulen-2-yl)-1H-pyrazolo[3,4-b]pyridin-3-yl]-2,3,4,5-tetrahydro-1,4-benzoxazepin-5-one], the IC50 against Axl [1] and on Axl [2] was < 100 nM each time.

Consider `O=C1NCCOc2cc(-c3n[nH]c4ncc(-c5ccc6c(c5)CCC(N[C@@H]5CCOC5)CC6)cc34)ccc21` (stereo partly drawn) [Example 46, 8-[5-(7-{[(3R)—Oxolan-3-yl]amino}-6,7,8,9-tetrahydro-5H-benzo[7]annulen-2-yl)-1H-pyrazolo[3,4-b]pyridin-3-yl]-2,3,4,5-tetrahydro-1,4-benzoxazepin-5-one], for which the concentration for half-maximal inhibition (IC50) against Axl [1] and at Axl [2] was < 100 nM in each case.

`O=C1NCCOc2cc(-c3n[nH]c4ncc(-c5ccc6c(c5)CCC(N5CCOCC5)CC6)cc34)ccc21` (stereo not shown) [Example 47, 8-{5-[7-(Morpholin-4-yl)-6,7,8,9-tetrahydro-5H-benzo[7]annulen-2-yl]-1H-pyrazolo[3,4-b]pyridin-3-yl}-2,3,4,5-tetrahydro-1,4-benzoxazepin-5-one]: the concentration for half-maximal inhibition (IC50) on Axl [1] and at Axl [2] was < 100 nM each time.

With `O=C1NCCOc2cc(-c3n[nH]c4ncc(-c5ccc6c(c5)CCC(N5CCNCC5)CC6)cc34)ccc21` (stereo not shown) [Example 48, 8-{5-[7-(Piperazin-1-yl)-6,7,8,9-tetrahydro-5H-benzo[7]annulen-2-yl]-1H-pyrazolo[3,4-b]pyridin-3-yl}-2,3,4,5-tetrahydro-1,4-benzoxazepin-5-one], the IC50 at Axl [1] is < 100 nM; on Axl [2], 100 to 1000 nM.

`O=C1NCCOc2cc(-c3n[nH]c4ncc(-c5ccc6c(c5)CCC(N5CCC[C@@H]5CO)CC6)cc34)ccc21` (stereo partly drawn) [Example 49, 8-(5-{7-[(2R)-2-(Hydroxymethyl)pyrrolidin-1-yl]-6,7,8,9-tetrahydro-5H-benzo[7]annulen-2-yl}-1H-pyrazolo[3,4-b]pyridin-3-yl)-2,3,4,5-tetrahydro-1,4-benzoxazepin-5-one]: the IC50 on Axl [1] and at Axl [2] was < 100 nM each time.

For `O=C1NCCOc2cc(-c3n[nH]c4ncc(-c5ccc6c(c5)CCC(N5CCC[C@H]5CO)CC6)cc34)ccc21` (stereo partly drawn) [Example 50, 8-(5-{7-[(2S)-2-(Hydroxymethyl)pyrrolidin-1-yl]-6,7,8,9-tetrahydro-5H-benzo[7]annulen-2-yl}-1H-pyrazolo[3,4-b]pyridin-3-yl)-2,3,4,5-tetrahydro-1,4-benzoxazepin-5-one], the IC50 against Axl [1] and at Axl [2] was < 100 nM throughout.

For the compound `O=C1NCCOc2cc(-c3n[nH]c4ncc(-c5ccc6c(c5)CCC(N5CC[C@@H](O)C5)CC6)cc34)ccc21` (stereo partly drawn) [Example 51, 8-(5-(7-((R)-3-Hydroxypyrrolidin-1-yl)-6,7,8,9-tetrahydro-5H-benzo[7]annulen-2-yl)-1H-pyrazolo[3,4-b]pyridin-3-yl)-3,4-dihydrobenzo[f][1,4]oxazepin-5(2H)-one], the IC50 at Axl [1] is < 100 nM; at Axl [2], 100 to 1000 nM.

As for `O=C1NCCOc2cc(-c3n[nH]c4ncc(-c5ccc6c(c5)CCC(N5CCC5)CC6)cc34)ccc21` (stereo not shown) [Example 52, 8-(5-(7-(Azetidin-1-yl)-6,7,8,9-tetrahydro-5H-benzo[7]annulen-2-yl)-1H-pyrazolo[3,4-b]pyridin-3-yl)-3,4-dihydrobenzo[f][1,4]oxazepin-5(2H)-one], the half-inhibitory concentration (IC50) against Axl [1] and on Axl [2] was < 100 nM throughout.

Consider `O=C1NCCOc2cc(-c3n[nH]c4ncc(-c5ccc6c(c5)CCNCC6)cc34)ccc21` [Example 53, 8-(5-(2,3,4,5-Tetrahydro-1H-benzo[d]azepin-7-yl)-1H-pyrazolo[3,4-b]pyridin-3-yl)-3,4-dihydrobenzo[f][1,4]oxazepin-5(2H)-one], for which the results for the IC50 at Axl [1] and at Axl [2] were < 100 nM and 100 to 1000 nM, respectively.

`O=C1NCCOc2cc(-c3n[nH]c4ncc(-c5ccc6c(c5)CCNC6)cc34)ccc21` [Example 54, 8-(5-(1,2,3,4-Tetrahydroisoquinolin-6-yl)-1H-pyrazolo[3,4-b]pyridin-3-yl)-3,4-dihydrobenzo[f][1,4]oxazepin-5(2H)-one]: the figures for the IC50 against Axl [1] and on Axl [2] were < 100 nM and 100 to 1000 nM, respectively.

Take `O=C1NCCOc2cc(-c3n[nH]c4ncc(-c5ccc6c(c5)CNCC6)cc34)ccc21` [Example 55, 8-(5-(1,2,3,4-Tetrahydroisoquinolin-7-yl)-1H-pyrazolo[3,4-b]pyridin-3-yl)-3,4-dihydrobenzo[f][1,4]oxazepin-5(2H)-one]: the results for the half-inhibitory concentration (IC50) against Axl [1] and on Axl [2] were < 100 nM and 100 to 1000 nM, respectively.

Turning to `C[C@@H]1CCCN1C1CCc2cc(F)c(-c3cnc4[nH]nc(-c5ccc6c(c5)OCCNC6=O)c4c3)cc2CC1` (stereo partly drawn) [Example 58, 8-(5-{3-Fluoro-7-[(2R)-2-methylpyrrolidin-1-yl]-6,7,8,9-tetrahydro-5H-benzo[7]annulen-2-yl}-1H-pyrazolo[3,4-b]pyridin-3-yl)-2,3,4,5-tetrahydro-1,4-benzoxazepin-5-one], the half-inhibitory concentration (IC50) against Axl [1] and at Axl [2] was < 100 nM throughout.

For `C[C@@H]1CNC(=O)c2ccc(-c3n[nH]c4ncc(-c5ccc6c(c5)CCC(N5CCC[C@H]5C)CC6)cc34)cc2O1` (stereo partly drawn) [Example 59, (2R)-2-Methyl-8-(5-{7-[(2R)-2-methylpyrrolidin-1-yl]-6,7,8,9-tetrahydro-5H-benzo[7]annulen-2-yl}-1H-pyrazolo[3,4-b]pyridin-3-yl)-2,3,4,5-tetrahydro-1,4-benzoxazepin-5-one], the IC50 on Axl [1] and on Axl [2] was < 100 nM each time.

As for `C[C@@H]1CCCN1C1CCc2ccc(-c3cnc4[nH]nc(-c5ccc6c(c5F)OCCNC6=O)c4c3)cc2CC1` (stereo partly drawn) [Example 60, 9-Fluoro-8-(5-{7-[(2R)-2-methylpyrrolidin-1-yl]-6,7,8,9-tetrahydro-5H-benzo[7]annulen-2-yl}-1H-pyrazolo[3,4-b]pyridin-3-yl)-2,3,4,5-tetrahydro-1,4-benzoxazepin-5-one], the half-inhibitory concentration (IC50) on Axl [1] and at Axl [2] was < 100 nM each time.

Consider `C[C@@H]1CCCN1C1CCc2ccc(-c3cnc4[nH]nc(-c5cc6c(cc5F)C(=O)NCCO6)c4c3)cc2CC1` (stereo partly drawn) [Example 61, 7-Fluoro-8-(5-{7-[(2R)-2-methylpyrrolidin-1-yl]-6,7,8,9-tetrahydro-5H-benzo[7]annulen-2-yl}-1H-pyrazolo[3,4-b]pyridin-3-yl)-2,3,4,5-tetrahydro-1,4-benzoxazepin-5-one], for which the IC50 against Axl [1] and on Axl [2] was < 100 nM in each case.
